Consider 11 molecules from US11524966B1 (Valo Early Discovery, Inc., priority 2017, dated 2022).

Each structure is given as a SMILES string.

The target of the assay is T1, USP28 (His-tagged USP28-FL-mammalian) (Homo sapiens, UniProt Q96RU2).
T1 construct: Expression of USP28 (1-1077)-TEV-6*His (pTT5 vector); made in house; host or cells: Expi293f cells (pTT5 vector)
T1 sequence (Q96RU2 1-1077): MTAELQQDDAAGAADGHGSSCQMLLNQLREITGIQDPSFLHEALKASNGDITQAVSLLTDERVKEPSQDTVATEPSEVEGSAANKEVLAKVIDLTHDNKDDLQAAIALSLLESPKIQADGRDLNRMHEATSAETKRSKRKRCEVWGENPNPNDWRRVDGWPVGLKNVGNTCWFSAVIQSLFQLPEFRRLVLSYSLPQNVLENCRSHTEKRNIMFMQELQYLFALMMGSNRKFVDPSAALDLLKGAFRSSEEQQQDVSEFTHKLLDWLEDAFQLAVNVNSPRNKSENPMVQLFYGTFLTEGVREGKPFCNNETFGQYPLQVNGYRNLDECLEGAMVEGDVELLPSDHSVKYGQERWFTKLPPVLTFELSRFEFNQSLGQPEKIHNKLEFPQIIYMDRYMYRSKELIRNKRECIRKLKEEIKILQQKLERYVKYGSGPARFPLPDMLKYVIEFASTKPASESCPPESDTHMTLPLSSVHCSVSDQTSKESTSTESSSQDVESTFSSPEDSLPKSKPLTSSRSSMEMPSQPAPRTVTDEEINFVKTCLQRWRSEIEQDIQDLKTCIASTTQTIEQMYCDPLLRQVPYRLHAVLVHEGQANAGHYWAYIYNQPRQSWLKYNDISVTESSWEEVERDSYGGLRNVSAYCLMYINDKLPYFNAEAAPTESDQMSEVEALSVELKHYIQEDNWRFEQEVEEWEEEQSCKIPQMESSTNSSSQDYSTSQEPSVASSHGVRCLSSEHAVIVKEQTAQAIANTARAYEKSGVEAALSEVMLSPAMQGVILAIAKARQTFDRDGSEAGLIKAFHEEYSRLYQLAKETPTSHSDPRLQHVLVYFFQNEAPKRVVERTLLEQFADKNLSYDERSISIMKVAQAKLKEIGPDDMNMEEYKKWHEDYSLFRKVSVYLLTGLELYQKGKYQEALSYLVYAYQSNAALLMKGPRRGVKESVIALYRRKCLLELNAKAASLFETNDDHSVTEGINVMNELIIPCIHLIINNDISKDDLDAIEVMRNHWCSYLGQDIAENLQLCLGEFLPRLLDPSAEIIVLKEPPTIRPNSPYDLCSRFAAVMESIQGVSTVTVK
Description: Ubiquitin-Rhodamine 110 Assay for USP28 Activity, Example A-1(a). It is filed as biochemical. To be noted: Ubiquitin-Rhodamine 110 assay, Example A-1(a); read-out: USP28 A-1(a) IC50 range. The procedure, abridged: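 IC50 from 4-parameter logistic fit of percent inhibition versus no-enzyme and DMSO controls; compounds 25 μM to 1.3 nM, 3-fold. Ub-Rh110 cleavage (25 nM, below Km) by […] mammalian-expressed USP28-FL-His ran 45 min at room temperature, stopped with 10 mM citric acid, read ex 485/em 535.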
Broadly, the IC50 is the concentration that gives 50% inhibition. On to `CO[C@H]1CN(c2ccc3c(n2)CC[C@H](NC(=O)c2sc4nc(C)ccc4c2N)C3)C[C@H]1N` [Example 270, 3-amino-N-[(6S)-2-[(3R,4S)-3-amino-4-methoxypyrrolidin-1-yl]-5,6,7,8-tetrahydroquinolin-6-yl]-6-methylthieno[2,3-b]pyridine-2-carboxamide], for which the 50% inhibitory concentration (IC50) was in the range of 50 to 200 nM.

With `Cc1ccc2c(N)c(C(=O)N[C@H]3CCc4nc(N5C[C@@H]6NCCC(F)(F)[C@@H]6C5)ccc4C3)sc2n1` [Example 330, N-[(6S)-2-[(4aR,7aR)-4,4-difluoro-octahydro-1H-pyrrolo[3,4-b]pyridin-6-yl]-5,6,7,8-tetrahydroquinolin-6-yl]-3-amino-6-methylthieno[2,3-b]pyridine-2-carboxamide], the concentration for half-maximal inhibition (IC50) was 50 to 200 nM.

For the molecule `COC[C@]1(C)CN(c2ccc3c(n2)CC[C@H](NC(=O)c2sc4nc(C)ccc4c2N)C3)C[C@@H]1N` [Example 342, 3-amino-N-[(6S)-2-[(3R,4R)-4-amino-3-(methoxymethyl)-3-methylpyrrolidin-1-yl]-5,6,7,8-tetrahydroquinolin-6-yl]-6-methylthieno[2,3-b]pyridine-2-carboxamide], the IC50 is 50 to 200 nM.

Regarding `COC[C@@H]1CN(c2ccc3c(n2)CC[C@H](NC(=O)c2sc4nc(C)cc(C)c4c2N)C3)C[C@@H]1N` [Example 296, 3-amino-N-[(6S)-2-[(3R,4R)-3-amino-4-(methoxymethyl)pyrrolidin-1-yl]-5,6,7,8-tetrahydroquinolin-6-yl]-4,6-dimethylthieno[2,3-b]pyridine-2-carboxamide-], the IC50 was in the range of 50 to 200 nM.

For `CO[C@@H]1CCN(c2ccc3c(c2)OC[C@H](NC(=O)c2sc4nc(C)cc(C)c4c2N)C3)C[C@H]1N` [Example 318, 3-amino-N-[(3R)-7-[(3R,4R)-3-amino-4-methoxypiperidin-1-yl]-3,4-dihydro-2H-1-benzopyran-3-yl]-4,6-dimethylthieno[2,3-b]pyridine-2-carboxamide], the IC50 is 1 to 50 nM.

Regarding `CO[C@H]1CN(c2ccc3c(n2)CC[C@H](NC(=O)c2sc4nc(C)cnc4c2N)C3)C[C@@H]1NC(C)=O` [Example 266, 7-amino-N-[(6S)-2-[(3S,4S)-3-acetamido-4-methoxypyrrolidin-1-yl]-5,6,7,8-tetrahydroquinolin-6-yl]-3-methylthieno[2,3-b]pyrazine-6-carboxamide], the IC50 was 200 to 2000 nM.

In the case of `Cc1ccc2c(N)c(C(=O)N[C@H]3CCc4nc(N5C[C@H](N)[C@H](OC(C)C)C5)ccc4C3)sc2n1` [Example 321, 3-amino-N-[(6S)-2-[(3S,4R)-3-amino-4-(propan-2-yloxy)pyrrolidin-1-yl]-5,6,7,8-tetrahydroquinolin-6-yl]-6-methylthieno[2,3-b]pyridine-2-carboxamide], the 50% inhibitory concentration (IC50) fell in the range of 200 to 2000 nM.

For `COC[C@@H]1CN(c2nc3c(cc2F)C[C@H](NC(=O)c2sc4nc(C)ccc4c2N)CC3)C[C@@H]1N` (single isomer, unassigned) [Example 302], the half-inhibitory concentration (IC50) lay within 50 to 200 nM.

Regarding `Cc1ccc2c(N)c(C(=O)N[C@H]3COc4cc(N5CC6(C5)OCC[C@H]6N)ccc4C3)sc2n1` [Example 337, 3-amino-N-[(3R)-7-[(8R)-8-amino-5-oxa-2-azaspiro[3.4]octan-2-yl]-3,4-dihydro-2H-1-benzopyran-3-yl]-6-methylthieno[2,3-b]pyridine-2-carboxamide], the IC50 lay within 1 to 50 nM.

Regarding `Cc1ccc2c(N)c(C(=O)N[C@H]3CCc4nc(N5C[C@H](OC(C)C)[C@@H](N)C5)ccc4C3)sc2n1` [Example 320], the IC50 was 50 to 200 nM.

For the molecule `CCO[C@@H]1CN(c2ccc3c(c2)CC[C@H](NC(=O)c2sc4nc(C)ccc4c2N)C3)C[C@@H]1N` [Example 267, 3-amino-N-[(2S)-6-[(3S,4R)-3-amino-4-ethoxypyrrolidin-1-yl]-1,2,3,4-tetrahydronaphthalen-2-yl]-6-methylthieno[2,3-b]pyridine-2-carboxamide], the half-inhibitory concentration (IC50) fell in the range of 50 to 200 nM.
